The subject of the assay is nude mice, HT29 intrarenal xenograft, tumor weight T/C. In words: NCI In Vivo Anticancer Drug Screen. Data for tumor model HT29;CX-1 Human Adenocarcinoma (MER+) (intrarenal inoculation) in NU/NU Swiss (nude) mice. To be noted: endpoint: mean tumor weight change, higher = larger tumour. Here is the method:
The antitumor activity of compounds was measured in mice bearing transplantable tumors. Survival or tumor size were measured and the results are expressed as the measurement made in the treated group (T) divided by the measurement made in the vehicle treated control group (C). The tumor model used in this assay is HT29;CX-1 Human Adenocarcinoma (MER+) (intrarenal inoculation) in NU/NU Swiss (nude) mice

Where [1] appears, read: dose: 75.0 mg/kg/injection, schedule: Q04DX004 (sc), vehicle: saline with Tween-80.
The mark [2] stands for this setting: dose: 150.0 mg/kg/injection, schedule: Q04DX004 (sc), vehicle: saline with Tween-80.
The mark [3] stands for this setting: dose: 300.0 mg/kg/injection, schedule: Q04DX004 (sc), vehicle: saline with Tween-80.
The mark [4] stands for this setting: dose: 600.0 mg/kg/injection, schedule: Q04DX004 (sc), vehicle: saline with Tween-80.
Where [5] appears, read: dose: 100.0 mg/kg/injection, schedule: Q01DX010 (sc), vehicle: saline with Tween-80.
[6] abbreviates: dose: 200.0 mg/kg/injection, schedule: Q01DX010 (sc), vehicle: saline with Tween-80.
Where [7] appears, read: dose: 100.0 mg/kg/injection, schedule: Q04DX004 (sc), vehicle: saline with Tween-80.
Where [8] appears, read: dose: 200.0 mg/kg/injection, schedule: Q04DX004 (sc), vehicle: saline with Tween-80.
Where [9] appears, read: dose: 150.0 mg/kg/injection, schedule: Q04DX004 (sc), vehicle: saline.
The mark [10] stands for this setting: dose: 300.0 mg/kg/injection, schedule: Q04DX004 (sc), vehicle: saline.

Several values for one entry are separate records, joined by “and”; a condition that tells them apart may be missing. Equal entries are not always repeated. Results filed as inconclusive are left out.

As for `Oc1ccc(SCc2ccc(NCc3ccccc3)cc2)cc1`, the T/C runs as follows: (dose: 400.0 mg/kg/injection, schedule: Q01DX009 (sc), vehicle: saline with Tween-80) 50 % of control; (dose: 500.0 mg/kg/injection, schedule: Q01DX010 (sc), vehicle: saline with Tween-80) 90 % of control; (dose: 800.0 mg/kg/injection, schedule: Q01DX009 (sc), vehicle: saline with Tween-80) 84 % of control; (dose: 1000.0 mg/kg/injection, schedule: Q01DX010 (sc), vehicle: saline with Tween-80) 84 % of control; (dose: 1600.0 mg/kg/injection, schedule: Q01DX009 (sc), vehicle: saline with Tween-80) 49 % of control; (dose: 2000.0 mg/kg/injection, schedule: Q01DX010 (sc), vehicle: saline with Tween-80) 54 % of control.

Regarding `CN(C)P(=O)(Oc1ccccc1)N(C)C`, the T/C by setting is: under setting [1], 183 % of control; under setting [2], 122 % of control; under setting [3], 62 % of control; under setting [4], 40 % of control.

`CN1C(=O)CC2(CCN(CCCC(=O)c3ccc(F)cc3)CC2)C1=O`: the T/C (dose: 75.0 mg/kg/injection, schedule: Q04DX004 (sc), vehicle: suspension in saline) was 120 % of control.

In the case of `O=C([CH-]C(=O)C(F)(F)F)c1ccccc1.O=C([CH-]C(=O)C(F)(F)F)c1ccccc1.O=C([CH-]C(=O)C(F)(F)F)c1ccccc1.O=C([CH-]C(=O)C(F)(F)F)c1ccccc1.[Eu+3].c1ccncc1`, for the setting “dose: 800.0 mg/kg/injection, schedule: Q01DX010 (sc), vehicle: Klucel (hydroxypropylcellulose) (HPC)”, the T/C is 10 % of control and 20 % of control (2×).

On to `CC(=O)[C@]1(O)Cc2c(O)c3c(c(O)c2[C@@H](OC2CC(N)C(O)C(C)O2)C1)C(=O)c1c(O)cccc1C3=O` (stereo partly drawn), for which the T/C was 50 % of control (dose: 0.63 mg/kg/injection, schedule: Q04DX004 (sc), vehicle: saline) and 68 % of control (dose: 1.25 mg/kg/injection, schedule: Q04DX004 (sc), vehicle: saline).

For `CCOC(C)C(/C=N/NC(N)=S)=NNC(N)=S` (stereo not drawn), the T/C is, setting by setting: under setting [5], 76 % of control; under setting [6], 49 % of control; (dose: 400.0 mg/kg/injection, schedule: Q01DX010 (sc), vehicle: saline with Tween-80) 68 % of control.

With `CC1=C(/C=C/C(C)=C/C=C/C(C)=C/CO)C(C)(C)CCC1`, the T/C by setting is: under setting [7], 82 % of control; under setting [8], 94 % of control; (dose: 400.0 mg/kg/injection, schedule: Q04DX004 (sc), vehicle: saline with Tween-80) 96 % of control; (dose: 800.0 mg/kg/injection, schedule: Q04DX004 (sc), vehicle: saline with Tween-80) 121 % of control.

`COc1ccc(/C=C/C(=O)c2cc(C(=O)O)c(OC)cc2OC)cc1OC`: the T/C runs as follows: (dose: 225.0 mg/kg/injection, schedule: Q04DX004 (sc), vehicle: suspension in saline) 82 % of control; (dose: 450.0 mg/kg/injection, schedule: Q04DX004 (sc), vehicle: suspension in saline) 102 % of control; (dose: 900.0 mg/kg/injection, schedule: Q04DX004 (sc), vehicle: suspension in saline) 88 % of control.

Regarding `O=C1C=C(C2OC(CO)C(O)C2O)C(=O)N1` (stereo not drawn), the T/C is 78 % of control (dose: 6.25 mg/kg/injection, schedule: Q01DX010 (sc), vehicle: saline) and 78 % of control (dose: 12.5 mg/kg/injection, schedule: Q01DX010 (sc), vehicle: saline).

`O=c1[nH]c(=O)n(C2CC(O)C(CO)O2)cc1Br` (stereo not drawn): the T/C was 157 % of control (dose: 600.0 mg/kg/injection, schedule: Q04DX004 (sc), vehicle: Klucel (hydroxypropylcellulose) (HPC)); 91 % of control (dose: 1200.0 mg/kg/injection, schedule: Q04DX004 (sc), vehicle: Klucel (hydroxypropylcellulose) (HPC)); 59 % of control (dose: 2400.0 mg/kg/injection, schedule: Q04DX004 (sc), vehicle: Klucel (hydroxypropylcellulose) (HPC)).

For the compound `CNC(=O)OCc1c(COC(=O)NC)c(C)n(-c2ccc(OC)cc2)c1C`, the T/C (dose: 50.0 mg/kg/injection, schedule: Q04DX004 (sc), vehicle: Klucel (hydroxypropylcellulose) (HPC)) is 69 % of control; the T/C (dose: 100.0 mg/kg/injection, schedule: Q04DX004 (sc), vehicle: Klucel (hydroxypropylcellulose) (HPC)) is 90 % of control; the T/C (dose: 200.0 mg/kg/injection, schedule: Q04DX004 (sc), vehicle: Klucel (hydroxypropylcellulose) (HPC)) is 46 % of control; the T/C (dose: 400.0 mg/kg/injection, schedule: Q04DX004 (sc), vehicle: Klucel (hydroxypropylcellulose) (HPC)) was 36 % of control.

Consider `COc1cc(NCc2ccc3nc(N)nc(N)c3c2C)cc(OC)c1OC`, for which the T/C was 88 % of control (dose: 9.35 mg/kg/injection, schedule: Q04DX004 (sc), vehicle: water); 35 % of control (dose: 10.0 mg/kg/injection, schedule: Q01DX010 (sc), vehicle: sodium bicarbonate); 117 % of control (dose: 18.7 mg/kg/injection, schedule: Q04DX004 (sc), vehicle: water); 32 % of control (dose: 37.5 mg/kg/injection, schedule: Q04DX004 (sc), vehicle: water).

Regarding `CC(=O)Nc1cscc1NC(C)=O`, the T/C reads like this: under setting [1], 84 % of control; under setting [2], 81 % of control; under setting [3], 155 % of control; under setting [4], 155 % of control; (dose: 1200.0 mg/kg/injection, schedule: Q04DX004 (sc), vehicle: saline with Tween-80) 82 % of control; (dose: 2400.0 mg/kg/injection, schedule: Q04DX004 (sc), vehicle: saline with Tween-80) 118 % of control.

Regarding `Cc1ccc2c(c1)N=C(Nc1ccccc1)N=S2(C)=O` (stereo not drawn), the T/C is, setting by setting: (dose: 50.0 mg/kg/injection, schedule: Q04DX004 (sc), vehicle: saline with Tween-80) 48 % of control; under setting [7], 67 % of control; under setting [8], 66 % of control.

In the case of `Cn1c(=O)[nH]c2nncnc2c1=O`, the T/C (dose: 15.0 mg/kg/injection, schedule: Q04DX004 (sc), vehicle: water) is 79 % of control and 101 % of control; the T/C (dose: 60.0 mg/kg/injection, schedule: Q04DX004 (sc), vehicle: water) was 78 % of control and 86 % of control; the T/C (dose: 120.0 mg/kg/injection, schedule: Q04DX004 (sc), vehicle: water) is 19 % of control.

For the compound `O=c1cc(CCl)[nH]nc1CCl`, the T/C is 90 % of control (dose: 25.0 mg/kg/injection, schedule: Q01DX010 (sc), vehicle: saline with Tween-80); 156 % of control (dose: 50.0 mg/kg/injection, schedule: Q01DX010 (sc), vehicle: saline with Tween-80); 90 % of control under setting [5]; 27 % of control under setting [6].

Regarding `C1CC[N-]CC1.C1CC[N-]CC1.C1CC[N-]CC1.[Cl][Rh]([Cl])[Cl]`, the T/C under setting [9] is 36 % of control and the T/C under setting [10] was 25 % of control.

As for `OCC12COCN1COC2`, the T/C is 88 % of control under setting [9]; 76 % of control under setting [10]; 94 % of control (dose: 600.0 mg/kg/injection, schedule: Q04DX004 (sc), vehicle: saline); 90 % of control (dose: 1200.0 mg/kg/injection, schedule: Q04DX004 (sc), vehicle: saline).

With `O=CC(O)C(O)C(O)C(O)C(=O)O.[NH-]C1CCCCC1[NH-].[Pt+2]` (stereo not drawn), the T/C is, setting by setting: (dose: 9.38 mg/kg/injection, schedule: Q04DX004 (sc), vehicle: suspension in saline) 44 % of control; (dose: 18.75 mg/kg/injection, schedule: Q04DX004 (sc), vehicle: suspension in saline) 62 % of control.

Consider `Nc1n[nH]c(N)n1`, for which the T/C by setting is: (dose: 200.0 mg/kg/injection, schedule: Q01DX010 (sc), vehicle: saline) 295 % of control; (dose: 400.0 mg/kg/injection, schedule: Q01DX010 (sc), vehicle: saline) 157 % of control; (dose: 800.0 mg/kg/injection, schedule: Q01DX010 (sc), vehicle: saline) 215 % of control.

As to `O=c1n(CC2CO2)c(=O)n(CC2CO2)c(=O)n1CC1CO1` (stereo not drawn), the T/C is 42 % of control (dose: 18.75 mg/kg/injection, schedule: Q04DX004 (sc), vehicle: saline with Tween-80); 76 % of control (dose: 25.0 mg/kg/injection, schedule: Q01DX010 (sc), vehicle: saline); 33 % of control (dose: 37.5 mg/kg/injection, schedule: Q04DX004 (sc), vehicle: saline with Tween-80); 29 % of control (dose: 50.0 mg/kg/injection, schedule: Q01DX010 (sc), vehicle: saline).

Source of the values: PubChem BioAssay AID206 (DTP/NCI, 2004).
